From article PMC6875038, “Comparative Pharmacokinetic Studies of Four Ginsenosides in Rat Plasma by UPLC-MS/MS after Oral Administration of Panax quinquefolius-Acorus gramineus and Panax quinquefolius Extracts” (Journal of Analytical Methods in Chemistry, 2019)
Where two headings read alike, the source gives them in different places.

How the values were obtained:
[1] = Stability of the ginsenosides in rat plasma (QC samples); assay type: in vitro ADME; conditions: for Re (%) Postpreparation / Recovery (%) Postpreparation: autosampler 4°C for 12 h; for Re (%) Short term / Recovery (%) Short term / Re (%) Freeze-thaw cycles / Recovery (%) Freeze-thaw cycles: rat plasma; for Re (%) Short term / Recovery (%) Short term: 1 month at −80°C; for Re (%) Freeze-thaw cycles / Recovery (%) Freeze-thaw cycles: three freeze-thaw cycles at −80°C
Method: The standard stock solution was prepared in methanol with four ginsenosides at the final concentration of 1.14 mg/mL for Rb1, 0.10 mg/mL for Rb2, 0.78 mg/mL for Rd, and 1.58 mg/mL for Re. The working standard solution at required concentration was obtained by continuously diluting the stock solution. The IS stock solution was also prepared with methanol at a final concentration of 720 ng/mL. Calibration samples were prepared by mixing solutions of standard mixture, internal standard, and methanol with rat blank plasma at the final concentrations of 3.6, 7.2, 35.6, 71.2, 142.4, 284.8, 569.5, and 1, 139.0 ng/mL for Rb1, 1.6, 3.2, 6.3, 31.3, 62.5, 125.0, 250.0, and 500.0 ng/mL for Rb2, 1.2, 2.4, 4.9, 24.4, 48.8, 97.6, 195.1, and 390.2 ng/mL for Rd, and 2.5, 4.9, 9.9, 49.3, 98.6, 197.1, 394.3, and 788.5 ng/mL for Re. QC samples were also prepared with the same method at low, middle, and high concentrations (7.2, 142.4, and 911.4 ng/mL for Rb1, 3.2, 62.5, and 400.0 ng/mL for Rb2, 2.4, 48.8, and 312.2 ng/mL for Rd, 5.0, 98.6, and 630.8 ng/mL for Re). All solutions were stored at 4°C. The stability of the four analytes was determined by exposing plasma samples to QC at three concentration levels in six replicates. Samples were stored at −80°C for 1 month to assess the short-term storage stability. Freeze-thaw stability was performed after three freeze-thaw cycles at −80°C during three consecutive days. To evaluate the postpreparative stability, extracted QC samples were kept in the autosampler (4°C) for 12 h before analysis. The stability assessment of these samples was calibrated with freshly prepared standard as previously described.

[2] = Pharmacokinetics of four ginsenosides in rat plasma after oral administration of PQ-AG and PQ extracts (UPLC-MS/MS); assay type: in vivo; conditions: male SD rats, n = 6, mean ± SD; for AUC: male, SD, po
Method: Chromatographic analysis was performed on a Waters Acquity UPLC system (Waters Corp., Milford, MA, USA). An ACQUITY UPLC BEH C18 (100 × 2.1 mm, 1.7 μm) column was used for all analytes. The column temperature was at 35°C. The mobile phase was composed of formic acid aqueous solution (A, 0.1%) and acetonitrile (B) at a gradient elution of 25% B at 0–0.5 min, 25%–50% B at 0.5–2.0 min, 50–60% B at 2.0–5.0 min, 60–25% B at 5.0–5.5 min, and 25% B at 5.5–7.0 min, with a flow rate of 0.2 mL/min.
MS detection was performed using the Xevo Triple Quadruple MS (Waters Corp.) equipped with an ESI source in both positive and negative ionization modes. The experimental parameters were set as follows: CV 2.80 kV; desolvation temperature 350°C; source temperature […]; cone gas flow 50 L/h; and desolvation gas flow 650 L/h. The detection was carried out using the MRM scan mode. All experimental data were collected in centroid mode using Masslynx 4.1 software (Waters Corp., Milford, USA), and postacquisition quantitative analysis was conducted using Target Lynx program (Waters Corp., Milford, USA).
Plasma specimens (200 μL) were mixed with IS solution (20 μL, 720 ng/mL) in an Eppendorf tube and centrifuged at 4, 000 rpm for 15 min at 4°C. Then, the supernatant was removed from plasma sample. Hydrochloric acid (4 μL) was added into 200 μL plasma sample, and then, the mixture was vortexed for 1 min. Waters OASIS HLB SPE C18 columns (Waters, USA) were used to remove the proteins in plasma samples, and it was preactivated by 3 mL methanol and 3 mL water. Then, 2 mL of 100% methanol was used to wash the column, and the eluate was collected and dried under nitrogen gas (45°C). Subsequently, 100 μL of 100% methanol was used to redissolve the residues, followed by centrifugation at 13, 000 rpm for 15 min at 4°C. Before UPLC-MS/MS analysis, the sample was finally filtered through a 0.22 μm membrane filter.
DAS 3.2 software (Mathematical Pharmacology Professional Committee of China, Shanghai, China, 2011) was applied for the analysis of concentration-time data to investigate the pharmacokinetic parameters of four ginsenosides in various groups. Data were presented as the mean ± SD (standard deviation) with triplicate measurements. A significance level was set at P < 0.05.
Male SD rats were randomly and evenly divided into two groups (n = 6 per group) in pharmacokinetic studies. To evaluate the compatible effect of AG upon PQ treatment, rats were given PQ at a dosage of 0.54 g/kg (equivalent to the amount of raw drug 0.54 g) in the PQ group. PQ-AG was combined with an equal proportion to prepare the mixed extract. The oral dosage in rats was 1.08 g/kg (equivalent to the amount of the raw drug including 0.54 g AG and 0.54 g PQ) in the PQ-AG group. Blood samples were collected at specific time points of 0, 0.25, 0.5, 1.0, 1.5, 2.0, 4.0, 6.0, 8.0, 12.0, 16.0, 24.0, and 48.0 h. All the plasma samples were obtained by centrifuging the blood samples at 3, 500 rpm for 10 min, then labeled and frozen at −80°C prior to analysis.

[3] = extracted high QC (911.4 Rb1, 400.0 Rb2, 312.2 Rd, 630.8 Re ng/mL)
[4] = extracted low QC (7.2 Rb1, 3.2 Rb2, 2.4 Rd, 5.0 Re ng/mL)
[5] = extracted middle QC (142.4 Rb1, 62.5 Rb2, 48.8 Rd, 98.6 Re ng/mL)
[6] = high QC (911.4 Rb1, 400.0 Rb2, 312.2 Rd, 630.8 Re ng/mL)
[7] = low QC (7.2 Rb1, 3.2 Rb2, 2.4 Rd, 5.0 Re ng/mL)
[8] = middle QC (142.4 Rb1, 62.5 Rb2, 48.8 Rd, 98.6 Re ng/mL)
[9] = PQ group: oral PQ extract 0.54 g/kg
[10] = PQ-AG group: oral PQ-AG extract 1.08 g/kg
[11] = 0.54 g/kg, PQ group: oral PQ extract 0.54 g/kg, read-out: AUC0⟶t
[12] = 0.54 g/kg, PQ group: oral PQ extract 0.54 g/kg, read-out: AUC0⟶∞
[13] = 1.08 g/kg, PQ-AG group: oral PQ-AG extract 1.08 g/kg, read-out: AUC0⟶t
[14] = 1.08 g/kg, PQ-AG group: oral PQ-AG extract 1.08 g/kg, read-out: AUC0⟶∞

Compound | Re (%) Postpreparation [1, 3] [%] | Recovery (%) Postpreparation [1, 3] [%] | Re (%) Postpreparation [1, 4] [%] | Recovery (%) Postpreparation [1, 4] [%] | Re (%) Postpreparation [1, 5] [%] | Recovery (%) Postpreparation [1, 5] [%] | Re (%) Short term [1, 6] [%] | Recovery (%) Short term [1, 6] [%] | Re (%) Freeze-thaw cycles [1, 6] [%] | Recovery (%) Freeze-thaw cycles [1, 6] [%] | Re (%) Short term [1, 7] [%] | Recovery (%) Short term [1, 7] [%] | Re (%) Freeze-thaw cycles [1, 7] [%] | Recovery (%) Freeze-thaw cycles [1, 7] [%] | Re (%) Short term [1, 8] [%] | Recovery (%) Short term [1, 8] [%] | Re (%) Freeze-thaw cycles [1, 8] [%] | Recovery (%) Freeze-thaw cycles [1, 8] [%] | Cmax [2, 9] [ng/mL] | Tmax [2, 9] [h] | other results
CC(C)=CCC[C@](C)(O[C@@H]1O[C@H](CO)[C@@H](O)[C@H](O)[C@H]1O)[C@H]1CC[C@]2(C)[C@@H]1[C@H](O)C[C@@H]1[C@@]3(C)CC[C@H](O[C@@H]4O[C@H](CO)[C@@H](O)[C@H](O)[C@H]4O[C@@H]4O[C@H](CO)[C@@H](O)[C@H](O)[C@H]4O)C(C)(C)[C@@H]3CC[C@]12C [Rd] | −7.02 | 94.81 | 4.43 | 100.10 | 9.98 | 101.71 | 7.35 | 101.27 | 8.12 | 102.00 | 8.64 | 102.66 | −11.93 | 97.24 | 10.24 | 103.61 | 8.87 | 100.20 | 201 ± 7.3 | 7.67 ± 0.82 | half-life [2, 9]: 13.1 ± 2.61 h; Cmax [2, 10]: 283 ± 11.1 ng/mL; Tmax [2, 10]: 6.33 ± 0.82 h; half-life [2, 10]: 14.2 ± 1.98 h; AUC [2, 11]: 3010 ± 230 ng·h/mL; AUC [2, 12]: 3320 ± 317 ng·h/mL; AUC [2, 13]: 3870 ± 356 ng·h/mL; AUC [2, 14]: 3960 ± 383 ng·h/mL
CC(C)=CCC[C@](C)(O[C@@H]1O[C@H](CO)[C@@H](O)[C@H](O)[C@H]1O)[C@H]1CC[C@]2(C)[C@@H]1[C@H](O)C[C@@H]1[C@@]3(C)CC[C@H](O)C(C)(C)[C@@H]3[C@@H](O[C@@H]3O[C@H](CO)[C@@H](O)[C@H](O)[C@H]3O[C@@H]3O[C@@H](C)[C@H](O)[C@@H](O)[C@H]3O)C[C@]12C [Re] | 9.76 | 102.50 | 8.54 | 104.63 | 8.92 | 97.21 | 8.40 | 101.73 | −9.85 | 97.39 | −10.71 | 97.30 | 7.33 | 104.07 | 12.11 | 99.25 | 7.53 | 94.12 | 355 ± 26.6 | 1.08 ± 0.2 | half-life [2, 9]: 8.14 ± 1.2 h; Cmax [2, 10]: 460 ± 30.2 ng/mL; Tmax [2, 10]: 0.58 ± 0.2 h; half-life [2, 10]: 9.81 ± 2.15 h; AUC [2, 11]: 2330 ± 214 ng·h/mL; AUC [2, 12]: 2380 ± 224 ng·h/mL; AUC [2, 13]: 3430 ± 294 ng·h/mL; AUC [2, 14]: 3580 ± 396 ng·h/mL
